Source: article PMC12247020, “A Cyclized Helix‐Loop‐Helix Peptide as a Molecular Scaffold for Cell‐Membrane Permeable Inhibitors for the Interaction Between Estrogen Receptor α and Coactivator SRC1” (Chembiochem, 2025)
Bridge positions count the residues as written; N and C are the ends. Peptide text beside a SMILES is read from it.

Tests used:
[1] = target: T1, interaction between ERα/LBD and FL‐SRC1Box2 (Homo sapiens, UniProt P03372); assay: FP competition: inhibition of the ERα/LBD–FL‐SRC1Box2 interaction; type: binding; conditions: ERα/LBD 20 μM, four parameter logistic equation (Fig S5C)
T1 construct: Recombinant ERα/LBD (ERα^302–552) was prepared as previously reported; made in house; host or cells: Escherichia coli BL21-CodonPlus-RP (ERα LBD); the probe is a synthetic peptide
T1 sequence (P03372 302-552): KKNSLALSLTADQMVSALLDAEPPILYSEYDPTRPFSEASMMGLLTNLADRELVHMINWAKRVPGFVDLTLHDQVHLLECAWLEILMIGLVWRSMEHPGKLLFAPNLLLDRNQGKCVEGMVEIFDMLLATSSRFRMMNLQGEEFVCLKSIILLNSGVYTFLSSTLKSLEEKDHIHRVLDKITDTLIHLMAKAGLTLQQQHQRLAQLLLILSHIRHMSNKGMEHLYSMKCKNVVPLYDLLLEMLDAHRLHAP
Description: The binding activity of cHLH‐ERα was examined by fluorescence polarization (FP) analysis.^[ [26], [29] ^] The cHLH peptides were labeled with tetramethylrhodamine (TMR) to provide the fluorescent cHLH peptide TMR‐cHLH‐ERα, and fluorescent TMR‐YT1‐RS as a negative control (Figure 1, Figure S2, Supporting Information).
4. Fluorescence Polarization
The binding activity of the ERα-LBD was examined with 20 nM FL-SRC1Box2 (CH3CO- […]
C(FL)[…]-NH2; FL: Fluorescein) with 10 µM 17β-estradiol in 20 mM
Tris-HCl (pH 8.0), 25 mM NaCl, 10%(v/v) Glycerol, 1 mM TCEP as described. The concentration of FL-SRC1Box2 labeled with Fluorescein and TMR-cHLH-ERα and YT1-RS were determined from the absorption of Fluorescein or Tetramethylrhodamine. The respective peptide was incubated with ERα-LBD for 30 min in 20 mM Tris-HCl (pH 8.0), 25 mM NaCl with 1 mM 17β-estradiol, and the mixture was transferred into a 384-well microtiter well (Non-binding, Black, greiner bio -one) and the fluorescence polarization was measured on a spectrofluorometer (SpectraMax iD5, Molecular Devices) at 20 °C. The KD values were analyzed via a quadratic binding equation (Fig S5A, S5B) with the data fit to calculate by using KaleidaGraph 4.0 as described elsewhere. The IC50 value was estimated as 7.1 µM derived from four parameter logistic equation (Fig. S 5C). […]

[2] = system: MCF‐7 breast cancer cells; assay: WST‐1 cell viability assay, 17β‐estradiol‐dependent proliferation; type: cell-based; conditions: WST‐1 assay, 3.125 to 25 μM peptide, 10 nM 17β‐estradiol, 72 h
Description: Next, we examined the inhibitory activities of the peptides for the 17β‐estradiol‐dependent proliferation of MCF‐7 breast cancer cells using the WST‐1 assay (Figure 2D). The MCF‐7 cells were incubated with the serially diluted peptides cHLH‐ERα or YT1‐RS in the presence of 10 nM 17β‐estradiol.
For cell viability assay,^[ [35] ^] ER‐positive MCF‐7 cancer cells were grown in the recommended media Dulbecco's modified Eagle medium (DMEM) supplemented with 10% heat‐inactivated fetal bovine serum and with 1% penicillin–streptomycin (Gibco) in a humidified environment with 5% CO2. These cells were incubated in 96‐well plates (Corning) at 5,000 cells/well and cultured for 24 h. The cells were treated with 10 nM 17β‐estradiol for 1 h, then a various concentrations of peptides were added. After culturing the cells for 72 h, the proliferation f cells was measured by using WST‐1 reagent (Roche) according to the standard protocols. The absorbance was measured by using a microplate reader (Model 680, Bio‐Rad). Reliability of the cell viability assay was confirmed by using Tamoxifen (nacalai tesque) as a control.

[3] = system: human ERα and the transcriptional coactivator SRC1; assay: Yeast reporter assay (lacZ, β‐galactosidase) for ERα–SRC1 antagonism; type: cell-based; conditions: 100 μM peptide, 17β‐estradiol (10 and 100 nM), 18 h, 30 °C
Source text: The expression plasmids for human ERα and the transcriptional coactivator SRC1 were transformed, along with the lacZ reporter plasmid carrying the estrogen response element (RE).^[ [13] ^] The production of ERα and SRC1 was regulated by the galactose‐inducible GAL1‐10 promoter. In response to 17β‐estradiol, ERα, and SRC1 formed a complex on the RE, inducing the ligand‐dependent expression of β‐galactosidase (Figure S8, Supporting Information). The genes encoding the major cell wall mannoproteins Cwp1p and Cwp2p were deleted,^[ [30] ^] probably allowing the cHLH peptides to access the cell membrane by passing through the less dense cell wall of the yeast strain.^[ [32] ^] The effect of the cHLH peptide on the ERα–SRC1 interaction was examined in the presence of 17β‐estradiol (10 and 100 nM).
As previously reported,^[ [30] ^] the yeast strain ERα cwp1Δcwp2Δ was cultured on agar plates with synthetic dextrose (glucose) complete (SDC) dropout medium lacking tryptophan, leucine, and uracil (SDC‐Trp, Leu, Ura; 2% glucose, 2% agar) for single colony isolation. […] Absorbance at wavelengths of 405 and 595 nm was measured using Model 680 Microplate Reader (BioRad Lab., Inc.) to estimate the β‐galactosidase activity as the amount of o‐nitrophenol (ONP) produced and yeast cell density, respectively. The relative β‐galactosidase activity in each well was calculated as A405/A595. […]

IC50 [1]: 7.1 µM
Structure (SMILES): CC(C)C[C@@H]1NC(=O)[C@H](C)NC(=O)[C@H](C)NC(=O)[C@H](CC(C)C)NC(=O)[C@H](CCCCN)NC(=O)CNC(=O)CNC(=O)CNC(=O)CNC(=O)CNC(=O)CNC(=O)CNC(=O)[C@H](CCC(=O)O)NC(=O)[C@H](CC(C)C)NC(=O)[C@H](CCCNC(=N)N)NC(=O)[C@H](CCCNC(=N)N)NC(=O)[C@H](CC(C)C)NC(=O)[C@H](CCC(=O)O)NC(=O)[C@H](CCCNC(=N)N)NC(=O)[C@H](CCC(=O)O)NC(=O)[C@H](CC(C)C)NC(=O)[C@H](CCCNC(=N)N)NC(=O)[C@H](CCCNC(=N)N)NC(=O)[C@H](CC(C)C)NC(=O)[C@H](CCC(=O)O)NC(=O)[C@H](CCCNC(=N)N)NC(=O)[C@H](C)NC(=O)CNC(=O)CSC[C@@H](C(N)=O)NC(=O)[C@H](Cc2ccc(O)cc2)NC(=O)[C@H](C)NC(=O)[C@H](CCCCN)NC(=O)[C@H](CC(C)C)NC(=O)[C@H](CC(C)C)NC(=O)[C@H](CC(C)C)NC(=O)[C@H](CC(C)C)NC(=O)[C@H](CCCCN)NC(=O)[C@H](CC(C)C)NC(=O)[C@H](CCCCN)NC1=O [cHLH‐ERα] ({CH2CO}-GARELRRLERELRRLEGGGGGGGKLAALKLKLLLLKAYC-NH2; thioether N-39)
inhibitory activity for the 17β‐estradiol‐dependent proliferation of MCF‐7 cells [2]: inhibited the proliferation of MCF‐7 cells dose‐dependently | inhibition of transcriptional activity (β‐galactosidase) in yeast reporter assay [3]: significantly inhibited transcriptional activity
